Measurements as given in ChEMBL document CHEMBL1201862, “PubChem BioAssay data set” (2004).
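Tested at 5 concentrations; 48 h exposure; 96-well plates; endpoints linearly interpolated, else capped at highest concentration. GI50: concentration for 50% inhibition of growth.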 The source made the active and inactive calls. Cut-off read from the data, not from the text of the source: active = GI50 up to about 1.1 µM and inactive = higher. Peptide text beside a SMILES is read from it.

Assays:
Experiment in all cases: inhibition of tumour cell growth, NCI panel, 48 h
OVCAR-3 = test system: OVCAR-3
UO-31 = test system: UO-31
M14 = test system: M14
NCI-H226 = test system: NCI-H226
LOX IMVI = test system: LOX IMVI
HCC 2998 = test system: HCC 2998
HOP-92 = test system: HOP-92
SF-295 = test system: SF-295
SNB-19 = test system: SNB-19
SK-MEL-5 = test system: SK-MEL-5
SNB-75 = test system: SNB-75
786-0 = test system: 786-0
COLO 205 = test system: COLO 205
IGROV-1 = test system: IGROV-1
SR = test system: SR
A498 = test system: A498
NCI-H23 = test system: NCI-H23
DU-145 = test system: DU-145
MDA-MB-435 = test system: MDA-MB-435
BT-549 = test system: BT-549

SMILES | GI50 (OVCAR-3) | GI50 (UO-31) | GI50 (M14) | GI50 (NCI-H226) | GI50 (LOX IMVI) | GI50 (HCC 2998) | GI50 (HOP-92) | GI50 (SF-295) | GI50 (SNB-19) | GI50 (SK-MEL-5) | GI50 (SNB-75) | GI50 (786-0) | GI50 (COLO 205) | GI50 (IGROV-1) | GI50 (SR) | GI50 (A498) | GI50 (NCI-H23) | GI50 (DU-145) | GI50 (MDA-MB-435) | GI50 (BT-549)
COc1cccc(/C=N\NC(=O)C(C)SC(C)C(=O)N/N=C/c2cccc(OC)c2)c1 (stereo not drawn) | 20.7 µM (inactive) | 41 µM (inactive) | 72.9 µM (inactive) | 21.2 µM (inactive) | > 10 µM (inactive) | 18.5 µM (inactive) | 20.8 µM (inactive) | 32.2 µM (inactive) | 20.8 µM (inactive) | 56.1 µM (inactive) | 16.9 µM (inactive) | 17.3 µM (inactive) | 24.6 µM (inactive) | 20.3 µM (inactive) | 40.5 µM (inactive) | 13 µM (inactive) | 23.8 µM (inactive) |  |  | 
[O-][N+]1=C(c2ccccc2)/C(=C2/C(c3ccccc3)=[N+]([O-])c3ccccc32)Cc2ccccc21 | 16.8 µM (inactive) | 14.5 µM (inactive) | 19.6 µM (inactive) | 22.5 µM (inactive) | 16.7 µM (inactive) | 13.9 µM (inactive) | 15.2 µM (inactive) | 15.3 µM (inactive) | 19 µM (inactive) | 17.6 µM (inactive) | 15.5 µM (inactive) | 15.3 µM (inactive) | 17.3 µM (inactive) | 16.4 µM (inactive) |  | 5.52 µM (inactive) | 15.5 µM (inactive) | 22 µM (inactive) | 20.2 µM (inactive) | 
CCOC(=O)C(C(=O)OCC)C(NC(=O)Nc1cc(C(F)(F)F)ccc1OC)(C(F)(F)F)C(F)(F)F | 26.1 µM (inactive) | 21 µM (inactive) | 21.1 µM (inactive) | 25.5 µM (inactive) | 29.8 µM (inactive) | 25.6 µM (inactive) | 25.5 µM (inactive) | 23.2 µM (inactive) | 39.9 µM (inactive) | 19.4 µM (inactive) |  | 24.6 µM (inactive) | 17.8 µM (inactive) | 25.4 µM (inactive) |  | 16.5 µM (inactive) | 35.3 µM (inactive) | 40.3 µM (inactive) | 19.1 µM (inactive) | 
N#Cc1c(-c2ccccc2)c(/C=N/c2cccc(C(F)(F)F)c2)c(=O)n2c1[nH]c1ccccc12 |  | 7.62 µM (inactive) | 32.3 µM (inactive) | 26.7 µM (inactive) | 32.6 µM (inactive) | 30.8 µM (inactive) |  | 46.2 µM (inactive) | 30.5 µM (inactive) | 52 µM (inactive) | 46 µM (inactive) | 36.1 µM (inactive) | > 100 µM (inactive) | 29.2 µM (inactive) |  | 34.4 µM (inactive) | 34.9 µM (inactive) |  | 39.5 µM (inactive) | 48 µM (inactive)
CCCCCc1c(Cl)nc(Cl)nc1Cl | 14.4 µM (inactive) | 18.5 µM (inactive) | 1.56 µM (inactive) | 2 µM (inactive) | 0.471 µM (active) | 11.1 µM (inactive) | 5.46 µM (inactive) | 25.1 µM (inactive) | 15.7 µM (inactive) | 5.81 µM (inactive) | 0.589 µM (active) | 3.67 µM (inactive) | 7.85 µM (inactive) | 7.05 µM (inactive) | 0.157 µM (active) | 20.1 µM (inactive) | 3.18 µM (inactive) | 21.7 µM (inactive) | 2.76 µM (inactive) | 
Cc1cc(N(CCC#N)CCC#N)ccc1/C=C(\N=[N+]=[N-])C(=O)NC(=O)COc1ccccc1 | > 100 µM (inactive) | > 100 µM (inactive) | > 100 µM (inactive) | > 100 µM (inactive) | > 100 µM (inactive) | > 100 µM (inactive) | > 100 µM (inactive) | > 61.7 µM (inactive) | > 76.6 µM (inactive) | > 100 µM (inactive) | > 44 µM (inactive) | > 100 µM (inactive) | > 100 µM (inactive) | > 100 µM (inactive) | > 100 µM (inactive) | > 100 µM (inactive) | > 100 µM (inactive) |  |  | 
O=C(CSC(=S)N1CCCCC1)Nc1nc2c(s1)CCCC2 |  | 33.7 µM (inactive) | 66.5 µM (inactive) | 43.4 µM (inactive) | 13.8 µM (inactive) | 48.3 µM (inactive) | 39.1 µM (inactive) | 16.4 µM (inactive) | 71.1 µM (inactive) | 18.5 µM (inactive) | > 100 µM (inactive) | 48.3 µM (inactive) | 33.3 µM (inactive) | > 100 µM (inactive) | 6.4 µM (inactive) | > 100 µM (inactive) | 36.6 µM (inactive) |  |  | 
CC(C)CC(NC(=O)C(CC(C)C)NC(=O)C(Cc1c[nH]cn1)NC(=O)C(C)NC(=O)C(NC(=O)C(C)NC(=O)C(Cc1c[nH]c2ccccc12)NC(=O)C(CCC(=O)O)NC(=O)C(N)Cc1ccccc1)C(C)C)C(N)=O (stereo not drawn) (H-FEWAVAHLL-NH2; configuration not given here) | > 12.5 µM (inactive) | > 12.5 µM (inactive) | > 12.5 µM (inactive) | > 12.5 µM (inactive) | > 12.5 µM (inactive) | > 12.5 µM (inactive) |  | > 12.5 µM (inactive) | > 100 µM (inactive) | > 12.5 µM (inactive) | > 100 µM (inactive) | > 12.5 µM (inactive) | > 12.5 µM (inactive) | > 12.5 µM (inactive) |  | > 12.5 µM (inactive) | > 12.5 µM (inactive) | > 12.5 µM (inactive) | > 12.5 µM (inactive) | 
CCOc1ccc2c(c1)[n+]([O-])c(-c1ccc([N+](=O)[O-])cc1)c(N)[n+]2[O-] | > 100 µM (inactive) | 43.1 µM (inactive) | > 100 µM (inactive) | > 100 µM (inactive) |  |  | > 100 µM (inactive) | > 100 µM (inactive) | > 100 µM (inactive) | > 100 µM (inactive) | 66.4 µM (inactive) | > 100 µM (inactive) | > 100 µM (inactive) | > 100 µM (inactive) | 67 µM (inactive) | > 100 µM (inactive) | > 100 µM (inactive) |  |  | 
N=C(N)N/N=C/c1oc(-c2ccc(S(=O)(=O)O)o2)c(-c2ccc(S(=O)(=O)O)o2)c1[N+](=O)[O-] | > 100 µM (inactive) | > 100 µM (inactive) | > 100 µM (inactive) | > 100 µM (inactive) | > 100 µM (inactive) | > 100 µM (inactive) | > 100 µM (inactive) | > 100 µM (inactive) | > 100 µM (inactive) | > 100 µM (inactive) | > 100 µM (inactive) | > 100 µM (inactive) | > 100 µM (inactive) | > 100 µM (inactive) | > 100 µM (inactive) | > 100 µM (inactive) | > 100 µM (inactive) |  |  | 
CC(C)(C)OC(=O)NC1CCC[C@H]1O (stereo partly drawn) | > 100 µM (inactive) | > 100 µM (inactive) | > 100 µM (inactive) | > 100 µM (inactive) | > 100 µM (inactive) | > 100 µM (inactive) | > 100 µM (inactive) | > 100 µM (inactive) | > 100 µM (inactive) | > 100 µM (inactive) | 47.3 µM (inactive) | > 100 µM (inactive) |  |  | > 100 µM (inactive) | > 100 µM (inactive) | > 100 µM (inactive) |  |  | 
O=C(O)c1ccc(Nc2nc3ccc(C(F)(F)F)cc3nc2C(=O)O)cc1 | > 100 µM (inactive) | > 100 µM (inactive) | > 100 µM (inactive) | > 100 µM (inactive) | > 100 µM (inactive) | > 100 µM (inactive) | > 100 µM (inactive) | > 100 µM (inactive) | > 100 µM (inactive) | > 100 µM (inactive) | > 100 µM (inactive) | > 100 µM (inactive) | > 100 µM (inactive) | > 100 µM (inactive) | > 100 µM (inactive) |  | > 100 µM (inactive) | > 100 µM (inactive) | > 100 µM (inactive) | 
COC(=O)/C=C(/C(=O)OC)C1(C)c2cc(C(=O)OC)c(C(=O)OC)c(N)c2C(=N)N1c1ccccc1 (stereo not drawn) | 17.9 µM (inactive) | 22.6 µM (inactive) | 17.5 µM (inactive) | 36.2 µM (inactive) | 18.2 µM (inactive) | 16.7 µM (inactive) | 10.4 µM (inactive) | 17.9 µM (inactive) | 49 µM (inactive) | > 10 µM (inactive) | 29.4 µM (inactive) | 28.6 µM (inactive) | 15.9 µM (inactive) | 27.5 µM (inactive) | 22.8 µM (inactive) | 31.1 µM (inactive) | 22.1 µM (inactive) |  |  | 
CCOC(=O)C1=C(C)N(Cc2ccccc2)C2(O)C=CC(=O)C3C(=O)N(c4ccccc4)C(=O)C132 (stereo not drawn) | 2.28 µM (inactive) | 1.89 µM (inactive) | 1.81 µM (inactive) | 2.45 µM (inactive) | 1.36 µM (inactive) | 1.67 µM (inactive) | 2.24 µM (inactive) | 3.58 µM (inactive) | 7.52 µM (inactive) | 3.57 µM (inactive) |  | 1.59 µM (inactive) | 1.51 µM (inactive) | 2 µM (inactive) | 1.01 µM (active) | 14.5 µM (inactive) | 2.56 µM (inactive) | 2.15 µM (inactive) | 1.89 µM (inactive) | 
O=C(NC1CCCCC1)c1c(O)[nH]c(=S)[nH]c1=O | > 100 µM (inactive) | 79.3 µM (inactive) | > 100 µM (inactive) | > 100 µM (inactive) | > 100 µM (inactive) |  | 96.8 µM (inactive) | 99.3 µM (inactive) | > 100 µM (inactive) | > 100 µM (inactive) | > 100 µM (inactive) | > 100 µM (inactive) | > 100 µM (inactive) | > 100 µM (inactive) | > 100 µM (inactive) | > 100 µM (inactive) | > 100 µM (inactive) |  |  | 
